Laboratory results as given in US20210369853A1, “TARGETED PROTEASE DEGRADATION PLATFORM” (EUBULUS BIOTHERAPEUTICS INC., priority 2018, published 2021).
Read-outs that look alike come from different tables or passages of the source.

Legend:
Type in all cases: cell-based
Human Colon Cancer HT-29 = assay: Cell proliferation experiment (Alarm blue, 72 h, EC50); conditions: HT-29 cells
Method in brief: (§1)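 EC50 values derive from Alamar blue fluorescence measured after cells in 96-well plates were incubated 72 h with compound diluted 5-fold per step in complete medium.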

[1] = tested on: Human Monocytic Leukemia MV4-11; assay: as above; conditions: Homo sapiens
Method in brief: as §1

[2] = tested on: Human Acute Lymphoblastic Leukemia Cells MOLT-4; assay: as above; conditions: MOL4-4 cells
Method in brief: as §1

[3] = tested on: Human Acute Myelomonocytic Leukemia HL-60; assay: as above; conditions: HL-60 cells
Method in brief: as §1

[4] = tested on: Human Breast Cancer MDA-MB-231; assay: as above; conditions: MDA-MB-231 cells
Method in brief: as §1

[5] = tested on: Human Glioma Cells U-87 MG; assay: as above; conditions: Homo sapiens; U-87MG cells
Method in brief: as §1

[6] = tested on: Human Small Cell Lung Cancer NCI-H82; assay: as above; conditions: Homo sapiens, NCI-H82; NCIH82 cells
Method in brief: as §1

PLK1 = molecular target: T1, PLK1 (Homo sapiens, UniProt P53350); assay: Western blot, protein degradation (DC50)
T1 construct: endogenous in cells
T1 sequence (P53350 whole entry): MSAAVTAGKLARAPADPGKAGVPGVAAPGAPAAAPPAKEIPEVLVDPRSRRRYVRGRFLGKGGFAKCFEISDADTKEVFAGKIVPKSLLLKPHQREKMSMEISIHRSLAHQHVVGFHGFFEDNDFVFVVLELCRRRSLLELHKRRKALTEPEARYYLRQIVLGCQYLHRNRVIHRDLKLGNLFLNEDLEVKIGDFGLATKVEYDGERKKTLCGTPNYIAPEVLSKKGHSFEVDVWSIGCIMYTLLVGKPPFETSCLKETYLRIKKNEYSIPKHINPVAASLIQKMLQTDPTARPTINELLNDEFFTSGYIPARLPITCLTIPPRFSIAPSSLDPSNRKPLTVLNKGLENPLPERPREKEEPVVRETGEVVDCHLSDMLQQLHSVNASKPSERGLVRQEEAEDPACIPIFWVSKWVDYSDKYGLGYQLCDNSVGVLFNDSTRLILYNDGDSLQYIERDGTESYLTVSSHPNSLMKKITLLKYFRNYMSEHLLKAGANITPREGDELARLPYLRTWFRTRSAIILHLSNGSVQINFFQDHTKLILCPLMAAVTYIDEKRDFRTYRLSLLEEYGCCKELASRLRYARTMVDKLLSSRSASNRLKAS
Method in brief: (§2)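 Protein loss read by ECL Western blot after compound treatment of cells; RIPA lysates run on 4%-12% SDS-PAGE, transferred to PVDF, primary antibody overnight at 4° C. Degradation derived from quantified band intensities.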

BRD4 = molecular target: T2, BRD4 (Homo sapiens, UniProt O60885); assay: Western blot, protein degradation (DC50)
T2 construct: endogenous in cells
Method in brief: as §2

Daudi = assay: Cell proliferation experiment (EC50), Daudi; conditions: Homo sapiens; Daudi cells
PBMC = assay: Cell proliferation experiment (EC50), PBMC
HUVEC = assay: Cell proliferation experiment (EC50), HUVEC; conditions: Homo sapiens
[7] = tested on: Human Monocytic Leukemia THP-1; assay: Cell proliferation experiment (Alarm blue, 72 h, EC50); conditions: THP-1 cells
Method in brief: as §1

[8] = tested on: Human Colon Cancer HCT-116; assay: as above; conditions: HCT116 cells
Method in brief: as §1

[9] = tested on: Human cervical adenocarcinoma cells Hela; assay: as above
Method in brief: as §1

[10] = 24 h, western blot, read-out: PLK1 DC50 (24 h)
[11] = 24 h, western blot, read-out: BRD4 DC50 (24 h)
[12] = 6 h, western blot, read-out: PLK1 DC50 (6 h)
[13] = 6 h, western blot, read-out: BRD4 DC50 (6 h)

EC50 (Human Colon Cancer HT-29; Homo sapiens) [nM] | EC50 [5] [nM] | EC50 [6] [nM] | EC50 ([1]; MV4-11, MV4;11 cells) [nM] | EC50 (Daudi) [nM] | SMILES | EC50 ([1]; MV4;11 cells) [nM] | EC50 [3] [nM] | EC50 ([4]; Homo sapiens) [nM] | other results
100 to 1000 | 100 to 1000 | 100 to 1000 | 100 to 1000 | 100 to 1000 | CC[C@@H]1C(=O)N(C)c2cnc(Nc3ccc(C(=O)NCCCC[C@@H](N)C(=O)Nc4cccc5c4CN(C4CCC(=O)NC4=O)C5=O)cc3OC)nc2N1C1CCCC1 (some centres unmarked) [UB-180855] |  |  |  | 
100 to 1000 | 100 to 1000 | 100 to 1000 | < 10 | 100 to 1000 | CC[C@@H]1C(=O)N(C)c2cnc(Nc3ccc(C(=O)NCc4cn(CCN(C)CCC(=O)Nc5cccc6c5CN(C5CCC(=O)NC5=O)C6=O)nn4)cc3OC)nc2N1C1CCCC1 (some centres unmarked) [UB-180848] |  |  |  | 
100 to 1000 | 100 to 1000 | 100 to 1000 | 100 to 1000 | 100 to 1000 | CC[C@@H]1C(=O)N(C)c2cnc(Nc3ccc(C(=O)NCCC[C@@H](N)C(=O)Nc4cccc5c4CN(C4CCC(=O)NC4=O)C5=O)cc3OC)nc2N1C1CCCC1 (some centres unmarked) [UB-180856] |  |  |  | 
100 to 1000 | 100 to 1000 | 100 to 1000 | 100 to 1000 | 100 to 1000 | CC[C@@H]1C(=O)N(C)c2cnc(Nc3ccc(C(=O)NCCOCCOCCOCCNCCCc4cccc5c4CN(C4CCC(=O)NC4=O)C5=O)cc3OC)nc2N1C1CCCC1 (some centres unmarked) [UB-180847] |  |  |  | 
100 to 1000 | 100 to 1000 | 100 to 1000 | 100 to 1000 | 100 to 1000 | CC[C@@H]1C(=O)N(C)c2cnc(Nc3ccc(C(=O)NC4CCN(CCOCCN(CCO)CC(=O)Nc5cccc6c5CN(C5CCC(=O)NC5=O)C6=O)CC4)cc3OC)nc2N1C1CCCC1 (some centres unmarked) [UB-180849] |  |  |  | 
100 to 1000 | 100 to 1000 | 100 to 1000 | < 10 | 100 to 1000 | CC[C@@H]1C(=O)N(C)c2cnc(Nc3ccc(C(=O)NCCOCCOCCOCCOCCNCC#Cc4cccc5c4CN(C4CCC(=O)NC4=O)C5=O)cc3OC)nc2N1C1CCCC1 (some centres unmarked) [UB-180844] |  |  |  | DC50 (PLK1; 6 h, read-out: PLK1 DC50 (6 h)): 10 to 100 nM; DC50 (BRD4; 6 h, read-out: BRD4 DC50 (6 h)): 10 to 100 nM
100 to 1000 | 100 to 1000 | 100 to 1000 | < 10 | 100 to 1000 | CC[C@@H]1C(=O)N(C)c2cnc(Nc3ccc(C(=O)NCCOCCOCCOCCNCC#Cc4cccc5c4CN(C4CCC(=O)NC4=O)C5=O)cc3OC)nc2N1C1CCCC1 (some centres unmarked) [UB-180846] |  |  |  | DC50 (BRD4; 6 h, read-out: BRD4 DC50 (6 h)): 10 to 100 nM
100 to 1000 | 100 to 1000 | 100 to 1000 | < 10 | 100 to 1000 | CC[C@@H]1C(=O)N(C)c2cnc(Nc3ccc(C(=O)NCCOCCOCCNCC#Cc4cccc5c4CN(C4CCC(=O)NC4=O)C5=O)cc3OC)nc2N1C1CCCC1 (some centres unmarked) [UB-180845] |  |  |  | DC50 (BRD4; 6 h, read-out: BRD4 DC50 (6 h)): < 10 nM

Further lines, the molecule ahead of its results:

SMILES | EC50 (Human Colon Cancer HT-29; Homo sapiens) [nM] | EC50 [5] [nM] | EC50 [6] [nM] | EC50 ([1]; MV4-11, MV4;11 cells) [nM] | EC50 (Daudi) [nM] | EC50 ([1]; MV4;11 cells) [nM] | EC50 [3] [nM] | EC50 ([4]; Homo sapiens) [nM] | other results
CC[C@@H]1C(=O)N(C)c2cnc(Nc3ccc(C(=O)NCCOCCOCCOCCNCCCCC(=O)Nc4cccc5c4CN(C4CCC(=O)NC4=O)C5=O)cc3OC)nc2N1Cc1ccc(Br)cc1 (some centres unmarked) [UB-180667] | 100 to 1000 | 100 to 1000 | 100 to 1000 |  |  | 10 to 100 | 100 to 1000 | 100 to 1000 | EC50 [2]: 100 to 1000 nM; DC50 (PLK1; [10]): < 10 nM; DC50 (BRD4; [11]): < 10 nM
CC[C@@H]1C(=O)N(C)c2cnc(Nc3ccc(C(=O)NCCOCCNCCCCCCC(=O)Nc4cccc5c4CN(C4CCC(=O)NC4=O)C5=O)cc3OC)nc2N1C1CCCC1 (some centres unmarked) [UB-180655] |  |  |  |  |  | 10 to 100 |  |  | EC50 (PBMC): > 1000 nM; EC50 (HUVEC): > 1000 nM; DC50 (PLK1; [12]): 100 to 1000 nM; DC50 (BRD4; [13]): < 10 nM
CC[C@@H]1C(=O)N(C)c2cnc(Nc3ccc(C(=O)NCCCNCCCCC(=O)Nc4cccc5c4CN(C4CCC(=O)NC4=O)C5=O)cc3OC)nc2N1C1CCCC1 (some centres unmarked) [UB-180658] | 100 to 1000 | 100 to 1000 | > 1000 | 10 to 100 |  |  | 100 to 1000 | 100 to 1000 | EC50 [7]: 100 to 1000 nM; EC50 ([8]; Homo sapiens, HCT-116): 100 to 1000 nM; EC50 ([9]; Homo sapiens): 100 to 1000 nM; DC50 (PLK1; [12]): 10 to 100 nM; DC50 (BRD4; [13]): 10 to 100 nM
CC[C@@H]1C(=O)N(C)c2cnc(Nc3ccc(C(=O)NCc4cn(CCNCCOCC(=O)Nc5cccc6c5CN(C5CCC(=O)NC5=O)C6=O)nn4)cc3OC)nc2N1Cc1ccc(Cl)s1 (some centres unmarked) [UB-180720] | 100 to 1000 | 100 to 1000 | 100 to 1000 |  |  | < 10 | 100 to 1000 | 100 to 1000 | EC50 [7]: 100 to 1000 nM; EC50 [2]: 100 to 1000 nM; EC50 ([8]; Homo sapiens, HCT-116): 100 to 1000 nM; EC50 ([9]; Homo sapiens): 100 to 1000 nM; DC50 (PLK1; 24 h, read-out: PLK1 DC50 (nM) (24 h)): < 10 nM; DC50 (BRD4; 24 h, read-out: BRD4 DC50 (nM) (24 h)): < 10 nM
CC[C@@H]1C(=O)N(C)c2cnc(Nc3ccc(C(=O)NC4CCN(CCOCCN(CC(=O)Nc5cccc6c5CN(C5CCC(=O)NC5=O)C6=O)C(=O)OC(C)C(C)SSC[C@@H](NC(=O)[C@@H](CC(=O)O)NC(=O)[C@@H](CC(=O)O)NC(=O)[C@@H](CCCNC(=N)N)NC(=O)[C@@H](CC(=O)O)NC(=O)CC[C@H](NC(=O)c5ccc(NCc6cnc7nc(N)[nH]c(=O)c7n6)cc5)C(=O)O)C(=O)O)CC4)cc3OC)nc2N1C1CCCC1 (some centres unmarked) [UB-180838] |  |  |  |  |  |  |  |  | EC50 (Human Colon Cancer HT-29): 100 to 1000 nM; EC50 [8]: 100 to 1000 nM; EC50 [4]: 100 to 1000 nM; EC50 [9]: 100 to 1000 nM
CC[C@@H]1C(=O)N(C)c2cnc(Nc3ccc(C(=O)NCc4cn(CCNCCCC(=O)Nc5cccc6c5CN(C5CCC(=O)NC5=O)C6=O)nn4)cc3OC)nc2N1C1CCCC1 (some centres unmarked) [UB-180681] | 100 to 1000 | 100 to 1000 | 100 to 1000 |  |  | < 10 | 100 to 1000 | 100 to 1000 | EC50 [2]: 100 to 1000 nM; DC50 (PLK1; [12]): 100 to 1000 nM; DC50 (BRD4; [13]): < 10 nM
CC[C@@H]1C(=O)N(C)c2cnc(Nc3ccc(C(=O)NC4CCN(CCOCCNCC(=O)Nc5cccc6c5CN(C5CCC(=O)NC5=O)C6=O)CC4)cc3OC)nc2N1C1CCCC1 (some centres unmarked) [UB-180699] | 100 to 1000 | 100 to 1000 | 100 to 1000 |  |  | 10 to 100 | 100 to 1000 | > 1000 | EC50 [7]: 100 to 1000 nM; EC50 [2]: 100 to 1000 nM; EC50 ([9]; Homo sapiens): 100 to 1000 nM; DC50 (PLK1; [10]): < 10 nM; DC50 (BRD4; [11]): < 10 nM
CC[C@@H]1C(=O)N(C)c2cnc(Nc3ccc(C(=O)NCCOCCNCCCCCCC(=O)Nc4cccc5c4CN(C4CCC(=O)NC4=O)C5=O)cc3OC)nc2N1Cc1ccc(Cl)s1 (some centres unmarked) [UB-180675] |  |  |  |  |  | 10 to 100 |  |  | EC50 (PBMC): > 1000 nM; EC50 (HUVEC): > 1000 nM; DC50 (PLK1; [12]): < 10 nM; DC50 (BRD4; [13]): < 10 nM
CC[C@@H]1C(=O)N(C)c2cnc(Nc3ccc(C(=O)NCCOCCOCCOCCNCCC(=O)Nc4cccc5c4CN(C4CCC(=O)NC4=O)C5=O)cc3OC)nc2N1Cc1ccc(Br)cc1 (some centres unmarked) [UB-180634] | 100 to 1000 | 100 to 1000 | > 1000 | < 10 |  |  | 100 to 1000 | 100 to 1000 | EC50 [7]: 100 to 1000 nM; EC50 ([8]; Homo sapiens, HCT-116): > 1000 nM; EC50 ([9]; Homo sapiens): 100 to 1000 nM
